Experimental data reported in patent publication US8354407B2 (Boehringer Ingelheim International GmbH, priority 2006, dated 2013).

target: T1, full-length human PKCα enzyme (Homo sapiens, UniProt P17252); experiment: Assessment of PKC-α Inhibitory Activity (MALDI-TOF kinase assay); assay type: biochemical; conditions: full-length human PKCα 0.12 μg/ml; ATP 45 μM; neurogranin 28-43 peptide 22 μM; 30 minute incubation at 24° C.; MALDI-TOF MS readout
T1 construct: full-length human PKCα enzyme; purchased Upstate Biotechnology
Procedure: Measurement of PKCα enzyme activity is performed using full-length human PKCα enzyme (Upstate Biotechnology) at a final concentration of 0.12 μg/ml in a kinase assay buffer (0.09 mg/ml bovine serum albumin (BSA), 210 μM ethylenediaminetetraacetic acid (EDTA), 360 μM CaCl2, 1 mM Tris-HCl, pH=7.5, 0.5 mM MgCl2, 0.015 mg/ml phosphatidylserine and 0.015 mg/ml diacylglycerol). The reaction is initiated by addition of adenosine triphosphate (ATP; final concentration 45 μM) and a peptide substrate consisting of amino acids 28-43 (Ala-Ala-Lys-Ile-Gln-Ala-Ser-Phe-Arg-Gly-His-Met-Ala-Arg-Lys-Lys) of neurogranin (Promega; final concentration 22 μM). After a 30 minute incubation at 24° C. the reaction is terminated by adding 5 μL of the reaction mixture into 50 μL of MALDI matrix solution (5 mg/ml α-cyano-4-hydroxycinnamic acid in 50% Acetonitrile/H2O, 0.1% TFA, 5 mM ammonium phosphate). Two microliters of the stopped reaction mixture is transferred onto a MALDI-TOF mass spectrometer target plate.
All spectra are collected on an Applied Biosystems 4700 Proteomics Analyzer MALDI-TOF MS equipped with a Nd:YAG laser (355 nm, 3 ns pulse width, 200 Hz repetition rate) in negative ion reflector mode. The system is operated with 4700 Explorer software, version 3.0. Automated acquisition parameters are adjusted to capture and average only those individual spectra within defined success criteria. Specifically, signal intensities for the substrate peptide are set to a minimum threshold of 3000 counts and a maximum intensity of 65,000 counts. This ensured that neither null spectra nor saturated spectra are averaged into the final readout. Between 1000 and 1500 laser shots are averaged for each sample. Data are collected in triplicate from 3 successive days to capture the maximum variability related to preparation of enzyme reaction, transfer of samples to MALDI target plates, data collection, and data extraction.
The isotope cluster areas for each peptide substrate and product peaks are extracted into a Microsoft Excel worksheet from the 10×10 array of spectral data simultaneously using the automated analysis function provided within the 4700 Explore software. The isotope cluster area is defined by the software algorithm based on the molecular weight and the general elemental composition of the peptides. The percent conversion (% C) of substrate to product is calculated as the cluster area of the product (P) divided by the sum of the cluster areas of the substrate (S) and the product multiplied by 100 as represented by the following equation: […]
For dose-dependent inhibition studies, the inhibition is plotted as a % Maximal Activity (% MA). Equation one is a measure of the ratio of product to substrate then solving for the % C. However, to measure inhibition of the enzyme activity, one must measure the degree to which that activity (% C) is curtailed. Thus the dose-dependant inhibition data is plotted as % MA where the maximal activity is the % C measured in control reactions with no inhibitor as represented by the following equation: […]

| Compound | IC50 [nM] |
| --- | --- |
| O=[N+]([O-])c1cccc(Nc2nccc(NCCCN3CCCC3)n2)c1 [N^2-(3-Nitrophenyl)-N^4-(3-pyrrolidin-1-yl-propyl)-pyrimidine-2,4-diamine] | 2 |
| NS(=O)(=O)c1cccc(Nc2nccc(NCCCN3CCOCC3)n2)c1 [3-[4-(3-Morpholin-4-yl-propylamino)-pyrimidin-2-ylamino]-benzenesulfonamide] | 14 |
| O=C(Nc1cccc(Nc2nccc(NCCCN3CCOCC3)n2)c1)c1ccccc1 [N-{3-[4-(3-Morpholin-4-yl-propylamino)-pyrimidin-2-ylamino]-phenyl}-benzamide] | 25 |
| CN1CCCC(CNc2ccnc(Nc3cccc(Cl)c3)n2)C1 (stereo not drawn) [N^2-(3-Chlorophenyl)-N^4-(1-methylpiperidin-3-ylmethyl)-pyrimidine-2,4-diamine] | 4 |
| Clc1cccc(Nc2nccc(NCC3CNCCO3)n2)c1 (stereo not drawn) [N^2-(3-Chlorophenyl)-N^4-morpholin-2-ylmethyl-pyrimidine-2,4-diamine] | 23 |
| CN1CCCC1CCNc1ccnc(Nc2cccc(Cl)c2)n1 (stereo not drawn) [N^2-(3-Chlorophenyl)-N^4-[2-(1-methylpyrrolidin-2-yl)-ethyl]-pyrimidine-2,4-diamine] | 0.4 |
| c1cncc(-c2cccc(Nc3nccc(NCCCN4CCOCC4)n3)c2)c1 [N^2-[3-(Pyridin-3-yl)-phenyl]-N^4-(3-morpholin-4-yl-propyl)-pyrimidine-2,4-diamine] | 28 |
| OCc1cccc(Nc2nccc(NCCCN3CCOCC3)n2)c1 [{3-[4-(3-Morpholin-4-yl-propylamino)-pyrimidin-2-ylamino]-phenyl}-methanol] | 465 |
| Brc1cccc(Nc2nccc(NCCCN3CCOCC3)n2)c1 [N^2-(3-Bromophenyl)-N^4-(3-morpholin-4-yl-propyl)-pyrimidine-2,4-diamine] | 1 |
| Cc1cccc(Nc2nccc(NCCCN3CCCC3)n2)c1 [N^2-(3-Methylphenyl)-N^4-(3-pyrrolidin-1-yl-propyl)-pyrimidine-2,4-diamine] | 40 |
| c1cc(Cc2cc3ccccc3[nH]2)cc(Nc2nccc(NCCCN3CCOCC3)n2)c1 [N^2-[3-(1H-Indol-2-ylmethyl)-phenyl]-N^4-(3-morpholin-4-yl-propyl)-pyrimidine-2,4-diamine] | 18 |
| c1cc(Nc2nccc(NCCCN3CCOCC3)n2)cc(-c2nc3ccccc3s2)c1 [N^2-[3-(Benzo[d]thiazol-2-yl)-phenyl]-N^4-(3-morpholin-4-yl-propyl)-pyrimidine-2,4-diamine] | 40 |
| Clc1cccc(Nc2nccc(NCC3CCNCC3)n2)c1 [N^2-(3-Chloro-phenyl)-N^4-piperidin-4-ylmethyl-pyrimidine-2,4-diamine] | 37 |
| O=S(=O)(NCc1cccnc1)c1cccc(Nc2nccc(NCCCN3CCOCC3)n2)c1 [3-[4-(3-Morpholin-4-yl-propylamino)-pyrimidin-2-ylamino]-N-(pyridin-3-ylmethyl)-benzenesulfonamide] | 52 |
| CN1CCN(CCCNc2ccnc(Nc3cccc(Cl)c3)n2)CC1 [N^2-(3-Chlorophenyl)-N^4-[3-(4-methylpiperazin-1-yl)-propyl]-pyrimidine-2,4-diamine] | 5 |
| CN1C2CCC1CC(Nc1ccnc(Nc3cccc(Cl)c3)n1)C2 (stereo not drawn) [N^2-(3-Chlorophenyl)-N^4-(8-methyl-8-azabicyclo[3.2.1]oct-3-yl)-pyrimidine-2,4-diamine] | 4 |
| CN1CCC(CNc2ccnc(Nc3cccc(Cl)c3)n2)CC1 [N^2-(3-Chlorophenyl)-N^4-(1-methylpiperidin-4-yl-methyl)-pyrimidine-2,4-diamine] | 30 |
| CN1CC[C@H](CNc2ccnc(Nc3cccc(Cl)c3)n2)C1 [N^2-(3-Chlorophenyl)-N^4—[(3R)-1-methylpyrrolidin-3-ylmethyl]-pyrimidine-2,4-diamine] | 7 |
| Clc1cccc(Nc2nccc(NCCCN3CCOCC3)n2)c1 [N^2-(3-Chlorophenyl)-N^4-(3-morpholin-4-yl-propyl)-pyrimidine-2,4-diamine] | 2 |
| CN1CC[C@@H](CNc2ccnc(Nc3cccc(Cl)c3)n2)C1 [N^2-(3-Chlorophenyl)-N^4-{[(3S)-1-methylpyrrolidin-3-yl]methyl}pyrimidine-2,4-diamine] | 13 |

| Compound | IC50 [nM] |
| --- | --- |
| O=S(=O)(Nc1ccccc1)c1cccc(Nc2nccc(NCCCN3CCOCC3)n2)c1 | 23 |
| Fc1cccc(Nc2nccc(NCCCN3CCOCC3)n2)c1 [N^2-(3-Fluorophenyl)-N^4-(3-morpholin-4-yl-propyl)-pyrimidine-2,4-diamine] | 64 |
| COc1cccc(Nc2nccc(NCCCN3CCCC3)n2)c1 [N^2-[3-Methoxyphenyl]-N^4-(3-pyrrolidin-1-yl-propyl)-pyrimidine-2,4-diamine] | 16 |
| O=C(Nc1cccc(Nc2nccc(NCCCN3CCOCC3)n2)c1)c1cccnc1 [N-{3-[4-(3-Morpholin-4-yl-propylamino)-pyrimidin-2-ylamino]-phenyl}-nicotinamide] | 112 |
| O=C(Nc1cccc(Cl)c1)c1cccc(Nc2nccc(NCCCN3CCCC3)n2)c1 [N-(3-Chlorophenyl)-3-[4-(3-pyrrolidin-1-yl-propylamino)-pyrimidin-2-ylamino]-benzamide] | 12 |
| c1cc(Nc2nccc(NCCCN3CCOCC3)n2)cc(-c2cccc3[nH]ccc23)c1 [N^2-[3-(1H-Indol-4-yl)-phenyl]-N^4-(3-morpholin-4-yl-propyl)-pyrimidine-2,4-diamine] | 12 |
| O=[N+]([O-])c1cccc(Nc2nccc(NCCCN3CCOCC3)n2)c1 [N^2-(3-Nitrophenyl)-N^4-(3-morpholin-4-yl-propyl)-pyrimidine-2,4-diamine] | 1 |
| Clc1cccc(Nc2nccc(NCCCN3CCCC3)n2)c1 [N^2-(3-Chlorophenyl)-N^4-(3-pyrrolidin-1-yl-propyl)-pyrimidine-2,4-diamine] | 3 |
| c1ccc(Oc2cccc(Nc3nccc(NCCCN4CCOCC4)n3)c2)cc1 [N^2-(3-Phenoxyphenyl)-N^4-(3-morpholin-4-yl-propyl)-pyrimidine-2,4-diamine] | 50 |
| FC(F)(F)c1cc(Nc2nccc(NCCCN3CCOCC3)n2)cc(C(F)(F)F)c1 [N^2-(3,5-Bis-trifluoromethyl-phenyl)-N^4-(3-morpholin-4-yl-propyl)-pyrimidine-2,4-diamine] | 21 |
| O=C1CCCN1CCCNc1ccnc(Nc2cccc(Cl)c2)n1 [1-{3-[2-(3-Chlorophenylamino)-pyrimidin-4-ylamino]-propyl}-pyrrolidin-2-one] | 710 |
| CN(C)c1cccc(Nc2nccc(NCCCN3CCOCC3)n2)c1 [N^2-[3-(N,N-dimethylamino)-phenyl]-N^4-(3-morpholin-4-yl-propyl)-pyrimidine-2,4-diamine] | 53 |
| N^2-(3-Nitro-biphenyl-3-yl)-N^4-(3-morpholin-4-yl-propyl)-pyrimidine-2,4-diamine | 182 |
| CN1CCN(S(=O)(=O)c2cccc(Nc3nccc(NCCCN4CCOCC4)n3)c2)CC1 [N^2-[3-(4-Methyl-piperazine-1-sulfonyl)phenyl]-N^4-(3-morpholin-4-ylpropyl)-pyrimidine-2,4-diamine] | 83 |
| Clc1cccc(Nc2nccc(NCC3CCCNC3)n2)c1 (stereo not drawn) [N^2-(3-Chlorophenyl)-N^4-piperidin-3-ylmethyl-pyrimidine-2,4-diamine] | 25 |
| CC(C)c1cccc(Nc2nccc(NCCCN3CCOCC3)n2)c1 [N^2-(3-Isopropylphenyl)-N^4-(3-morpholin-4-yl-propyl)-pyrimidine-2,4-diamine] | 80 |
| CC(C)NC(=O)c1cccc(Nc2nccc(NCCCN3CCCC3)n2)c1 [N-Isopropyl-3-[4-(3-pyrrolidin-1-yl-propylamino)-pyrimidin-2-ylamino]-benzamide] | 344 |
| c1ccc(-c2cccc(Nc3nccc(NCCCN4CCOCC4)n3)c2)cc1 [N^2-Biphenyl-3-yl-N^4-(3-morpholin-4-yl-propyl)-pyrimidine-2,4-diamine] | 3 |
| FC(F)(F)c1cccc(Nc2nccc(NCCCN3CCCC3)n2)c1 [N^2-[3-Trifluoromethyl-phenyl]-N^4-(3-pyrrolidin-1-yl-propyl)-pyrimidine-2,4-diamine] | 0.5 |
